This is an account of results in the supplement of paper PMC11127212.

Data set [1] is described as follows: retention time on BEH HILIC column (20 min gradient, 0.4 mL/min); higher = later elution. As to conditions: LC: HILIC. The protocol: (§1)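 Reference standards (20-100 uM) were separated by HILIC UPLC (BEH HILIC, 45 °C): acidic pH 3.0 ammonium formate/formic acid for ESI+ and basic pH 9.0 ammonium acetate/ammonia for ESI-. They were analysed on a Synapt G2-Si traveling-wave IMS-QTOF with nitrogen drift gas (WH 30 V; WV 800 m/s in ESI+ and 1000 m/s in ESI-).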

Data set [2] can be described thus: collision cross section (TWIMS, N2) of ion [M+H]+; higher = larger gas-phase ion cross section. As to conditions: ionization: ESI positive; LC: HILIC, pH 3.0 ammonium formate. The protocol:
as §1

Data set [3] in a line: collision cross section (TWIMS, N2) of ion [M-H]-; higher = larger gas-phase ion cross section. The conditions noted are these: ionization: ESI negative; LC: HILIC, pH 9.0 ammonium acetate. The protocol:
as §1

[4] abbreviates: ionization: ESI negative, pH 9.0 ammonium acetate.

In the case of `NC(=O)c1cccnc1` [Niacinamide], the “retention time on BEH HILIC column” value in data set [1] (ionization: ESI positive, pH 3.0 ammonium formate) was determined as 1.21 min. This compound displayed a collision cross section in data set [2] of 123.01 Å².
Turning to `NC(=O)C[C@H](N)C(=O)O` [L-asparagine], in data set [1] (setting [4]), the “retention time on BEH HILIC column” value is 8.32 min. In data set [3], this compound displayed a collision cross section of 123.48 Å².
Taken in the same sequence, the figures for `CC(C)C(=O)O` [Isobutyric acid] were 3.29 min and 118.84 Å².
In the case of `CC(C)CC(=O)O` [Isovaleric acid], the “retention time on BEH HILIC column” value in data set [1] (setting [4]) is 0.9 min. The same compound had a collision cross section in data set [3] of 123.48 Å².
The matching figures for `CC(O)C(C)C(=O)O` (stereo not given) [3-hydroxy-2-methylbutanoic acid]: 1.1 min and 124.78 Å².
Taken in the same sequence, the figures for `C[C@H](N)C(=O)O` [L-alanine] were 7.42 min and 117.06 Å².
The matching figures for `CC[C@H](N)C(=O)O` [2-aminobutyric acid]: 7.05 min and 121.74 Å².
On to `CC(C)CC(=O)C(=O)O` [Ketoleucine], for which the “retention time on BEH HILIC column” value in data set [1] (setting [4]) was found to be 1.93 min. Besides, the collision cross section in data set [3] is given as 128.21 Å².
Taken in the same sequence, the figures for `CCCCC(C)C(=O)O` (stereo not given) [2-methylhexanoic acid] were 0.8 min and 134.11 Å².
The matching figures for `O=C(O)CCC(=O)O` [Succinic acid]: 1.5 min and 118.44 Å².
For the compound `N[C@@H]1[C@@H](O)[C@H](O)[C@@H](COP(=O)(O)O)O[C@@H]1O` [Glucosamine 6-phosphate], the “retention time on BEH HILIC column” value in data set [1] (setting [4]) is 12.3 min. In addition, the collision cross section in data set [3] came out at 150.31 Å².
Taken in the same sequence, the figures for `N[C@@H](CC(=O)O)C(=O)O` [L-aspartic acid] were 11.5 min and 120.3 Å².
The matching figures for `CCCCCCCCCCCCCC(=O)O` [Myristic acid]: 0.73 min and 168.91 Å².
In the case of `C[C@@H](CC(=O)O)C(=O)O` [Methylsuccinic acid], in data set [1] (setting [4]), the “retention time on BEH HILIC column” value came out at 1.28 min. In data set [3], the collision cross section came out at 121.94 Å².
The matching figures for `Nc1ncnc2c1ncn2[C@@H]1O[C@H](COP(=O)(O)OP(=O)(O)O)[C@@H](O)[C@H]1O` [ADP]: 12.6 min and 183.67 Å².
The matching figures for `O=P(O)(O)OC[C@H]1O[C@](O)(COP(=O)(O)O)[C@@H](O)[C@@H]1O` [Fructose 1,6-bisphosphate]: 12.9 min and 159.01 Å².
As for `Nc1ncnc2c1ncn2[C@@H]1O[C@H](COP(=O)(O)OP(=O)(O)OP(=O)(O)O)[C@@H](O)[C@H]1O` [ATP], in data set [1] (setting [4]), the “retention time on BEH HILIC column” value came out at 12.3 min. For the same compound, the collision cross section in data set [3] turned out to be 190.77 Å².
The matching figures for `O=P(O)(O)O[C@H]1O[C@H](CO)[C@@H](O)[C@H](O)[C@H]1O` [Glucose 1-phosphate]: 9.95 min and 147.62 Å².
As for `C[C@@H](O)CC(=O)O` [3-hydroxybutyric acid], the “retention time on BEH HILIC column” value in data set [1] (setting [4]) is 0.97 min. Besides, the collision cross section in data set [3] was 107.41 Å².
The matching figures for `NCCc1c[nH]c2ccc(O)cc12` [Serotonin]: 3.73 min and 137.88 Å².
Taken in the same sequence, the figures for `C[C@@H](O)[C@H](N)C(=O)O` [L-threonine] were 7.5 min and 121.54 Å².
With `O=C(O)[C@H]1O[C@H](OP(=O)(O)OP(=O)(O)OC[C@H]2O[C@@H](n3ccc(=O)[nH]c3=O)[C@H](O)[C@@H]2O)[C@H](O)[C@@H](O)[C@@H]1O` [UDPGA], the “retention time on BEH HILIC column” value in data set [1] (setting [4]) was found to be 10.4 min. The collision cross section in data set [3] amounted to 209.99 Å².
Take `CC(=O)N[C@H]1[C@@H](OP(=O)(O)OP(=O)(O)OC[C@H]2O[C@@H](n3ccc(=O)[nH]c3=O)[C@H](O)[C@@H]2O)O[C@H](CO)[C@@H](O)[C@@H]1O` [UDPAG]: in data set [1] (setting [4]), the “retention time on BEH HILIC column” value was found to be 9.42 min. The collision cross section in data set [3] is listed as 219.62 Å².
The matching figures for `O=C(O)C(O)CCO` (stereo not given) [2,4-dihydroxybutyric acid]: 4.91 min and 119.85 Å².
The matching figures for `CCC(C)(O)C(=O)O` (stereo not given) [2-hydroxy-2-methyl butyric acid]: 1.55 min and 124.78 Å².
With `CCCCC(=O)O` [Valeric acid], the “retention time on BEH HILIC column” value in data set [1] (setting [4]) came out at 3.22 min. Moreover, the collision cross section in data set [3] is reported as 123.48 Å².
For the compound `CCC(CO)C(=O)O` (stereo not given) [2-ethylhydracrylic acid], the “retention time on BEH HILIC column” value in data set [1] (setting [4]) was 1.03 min. The collision cross section in data set [3] was determined as 123.21 Å².
The matching figures for `N[C@@H](CCC(=O)O)C(=O)O` [L-glutamic acid]: 8.21 min and 125.39 Å².
With `C[C@H](O)C(=O)O` [Lactic acid], in data set [1] (setting [4]), the “retention time on BEH HILIC column” value worked out at 2.86 min. The compound further displayed a collision cross section in data set [3] of 116.91 Å².
As to `O=P(O)(O)OC[C@H]1O[C@@](O)(CO)[C@@H](O)[C@H](O)[C@@H]1O` [D-sedoheptulose 7-phosphate], the “retention time on BEH HILIC column” value in data set [1] (setting [4]) came out at 9.82 min. In data set [3], this compound gave a collision cross section of 150.55 Å².
